Data: patent US20100021940A1, “Method for Determining the Activity of a Protease in a Sample” (ASTRAZENECA AB, priority 2006, published 2010)

Key:
MMP1 = target: T1, MMP1 (Homo sapiens, UniProt P03956); assay: Activity of purified MMP on substrate (reporter release); assay type: biochemical
T1 sequence (P03956 100-469): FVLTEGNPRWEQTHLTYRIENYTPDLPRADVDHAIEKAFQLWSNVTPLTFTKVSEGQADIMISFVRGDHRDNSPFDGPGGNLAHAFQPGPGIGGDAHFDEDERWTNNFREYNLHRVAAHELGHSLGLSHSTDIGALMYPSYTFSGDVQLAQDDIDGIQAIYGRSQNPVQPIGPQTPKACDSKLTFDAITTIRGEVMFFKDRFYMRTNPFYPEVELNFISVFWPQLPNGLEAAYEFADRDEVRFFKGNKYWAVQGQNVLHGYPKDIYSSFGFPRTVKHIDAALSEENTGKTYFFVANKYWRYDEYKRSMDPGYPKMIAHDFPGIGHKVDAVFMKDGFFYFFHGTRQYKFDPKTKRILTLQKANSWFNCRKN
Description: (§1) In order to confirm the specificity of the substrates for various MMPs, standard enzymatic assays were adapted to monitor the release of reporter. The reporter was either analysed by a LC-MS method as described in Example 3a, or by a LC-UV method as described in Example 4. A protocol for testing against other matrix metalloproteinases, including MMP9, using expressed and purified pro MMP is described, for instance, by C.

MMP3 = MMP3 (Homo sapiens, UniProt P08254); assay: as above; assay type: biochemical
Description: as §1

MMP8 = target: T2, MMP8 (Homo sapiens, UniProt P22894); assay: as above; assay type: biochemical
T2 construct: purchased Calbiochem
Protocol: In order to confirm the specificity of the substrates for various MMPs, standard enzymatic assays were adapted to monitor the release of reporter. The reporter was either analysed by a LC-MS method as described in Example 3a, or by a LC-UV method as described in Example 4. Purified pro-MMP8 is purchased from Calbiochem. The enzyme (at 10 μg/ml) is activated by p-amino-phenyl-mercuric acetate (APMA) at 1 mM for 2.5 h, 35° C. The activated enzyme can be used to monitor activity of substrates as follows: MMP8 (200 ng/ml final concentration) is incubated for 90 minutes at 35° C.

MMP9 = assay: as above; assay type: biochemical, human
Description: In order to confirm the specificity of the substrates for various MMPs, standard enzymatic assays were adapted to monitor the release of reporter. The reporter was either analysed by a LC-MS method as described in Example 3a, or by a LC-UV method as described in Example 4. […] The enzyme can be used to monitor activity of substrates as follows: […]

MMP13 = MMP13 (Homo sapiens, UniProt P45452); assay: as above; assay type: biochemical; settings: 30 μM substrate; MMP Conc. 1.2 nM; AZAP0.5 mg/ml
Description: (§2) In order to confirm the specificity of the substrates for various MMPs, standard enzymatic assays were adapted to monitor the release of reporter. The reporter was either analysed by a LC-MS method as described in Example 3a, or by a LC-UV method as described in Example 4.
(§3) A protocol for testing against other matrix metalloproteinases, including MMP9, using expressed and purified pro MMP is described, for instance, by C. Graham Knight et al., (1992) FEBS Lett., 296(3), 263-266.

MMP16 = MMP16 (Homo sapiens, UniProt P51512); assay: as above; assay type: biochemical; settings: 30 μM substrate; MMP Conc. 4.3 nM; Calbiochem #475939
Description: as §2, §3

MMP2 = target: T3, MMP2 (Homo sapiens, UniProt P08253); assay: as above; assay type: biochemical; settings: 30 μM substrate; MMP Conc. 0.71 nM; Chemicon #CC071
T3 sequence (P08253 110-660): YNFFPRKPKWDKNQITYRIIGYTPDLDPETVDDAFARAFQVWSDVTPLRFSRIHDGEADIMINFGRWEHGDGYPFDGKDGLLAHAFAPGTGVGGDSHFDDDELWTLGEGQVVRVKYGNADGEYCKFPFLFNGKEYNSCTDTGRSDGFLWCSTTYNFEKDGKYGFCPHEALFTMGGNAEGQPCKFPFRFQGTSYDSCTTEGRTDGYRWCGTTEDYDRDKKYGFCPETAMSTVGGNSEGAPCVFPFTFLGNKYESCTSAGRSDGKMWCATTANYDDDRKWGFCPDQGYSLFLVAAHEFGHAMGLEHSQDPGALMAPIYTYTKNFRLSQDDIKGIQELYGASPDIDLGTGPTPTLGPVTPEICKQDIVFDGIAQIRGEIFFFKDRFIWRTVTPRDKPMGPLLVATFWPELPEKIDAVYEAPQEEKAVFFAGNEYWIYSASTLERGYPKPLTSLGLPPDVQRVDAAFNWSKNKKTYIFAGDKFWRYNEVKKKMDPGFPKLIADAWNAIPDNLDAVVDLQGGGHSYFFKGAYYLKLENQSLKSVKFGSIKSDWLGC
Description: as §2, §3

MMP19 = assay: as above; assay type: biochemical, human; settings: 30 μM substrate; MMP Conc. 19 nM; AZL0095
Description: as §2
Recombinant human MMP19 catalytic domain may be expressed and purified as described by Parkar A. A. et al, (2000), Protein Expression and Purification, 20:152. The purified enzyme can be used to monitor activity of substrates as follows: MMP19 (40 ng/ml […]) in assay buffer (0.1M “Tris-HCl” (trade mark) buffer, pH 7.3 containing 0.1M NaCl, 20 mM CaCl2, 0.020 mM ZnCl and 0.05% (w/v) “Brij 35” (trade mark) detergent) in the presence or absence of inhibitors. Activity is determined by measuring the release of reporter 4-nitroaniline by the using the method in Example 3a.

MMPs = assay: Cleavage of separated diastereomers by MMPs to liberate the reporter; assay type: biochemical

T2 sequence (P22894 101-467): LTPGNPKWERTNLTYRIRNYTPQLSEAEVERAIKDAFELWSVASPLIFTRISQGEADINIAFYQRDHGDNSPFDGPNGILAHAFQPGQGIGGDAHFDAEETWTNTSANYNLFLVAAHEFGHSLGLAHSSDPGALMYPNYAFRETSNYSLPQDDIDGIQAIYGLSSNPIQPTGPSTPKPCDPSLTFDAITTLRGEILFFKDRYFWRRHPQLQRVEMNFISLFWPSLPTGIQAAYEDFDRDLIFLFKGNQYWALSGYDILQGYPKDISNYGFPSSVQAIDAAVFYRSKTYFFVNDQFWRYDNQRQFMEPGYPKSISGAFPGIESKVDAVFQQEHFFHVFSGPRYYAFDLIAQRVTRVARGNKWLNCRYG
Sequence of MMP3 (P08254 100-477): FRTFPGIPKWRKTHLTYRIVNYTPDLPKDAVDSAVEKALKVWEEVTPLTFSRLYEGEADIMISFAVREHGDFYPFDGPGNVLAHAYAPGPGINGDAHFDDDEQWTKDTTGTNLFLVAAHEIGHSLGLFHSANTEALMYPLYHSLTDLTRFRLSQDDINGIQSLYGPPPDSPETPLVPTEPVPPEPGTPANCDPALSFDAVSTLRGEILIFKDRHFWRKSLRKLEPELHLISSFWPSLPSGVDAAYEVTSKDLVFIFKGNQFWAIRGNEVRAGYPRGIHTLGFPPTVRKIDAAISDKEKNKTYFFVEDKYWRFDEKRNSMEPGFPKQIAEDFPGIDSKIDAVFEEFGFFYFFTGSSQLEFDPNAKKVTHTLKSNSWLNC
Sequence of MMP16 (P51512 120-607): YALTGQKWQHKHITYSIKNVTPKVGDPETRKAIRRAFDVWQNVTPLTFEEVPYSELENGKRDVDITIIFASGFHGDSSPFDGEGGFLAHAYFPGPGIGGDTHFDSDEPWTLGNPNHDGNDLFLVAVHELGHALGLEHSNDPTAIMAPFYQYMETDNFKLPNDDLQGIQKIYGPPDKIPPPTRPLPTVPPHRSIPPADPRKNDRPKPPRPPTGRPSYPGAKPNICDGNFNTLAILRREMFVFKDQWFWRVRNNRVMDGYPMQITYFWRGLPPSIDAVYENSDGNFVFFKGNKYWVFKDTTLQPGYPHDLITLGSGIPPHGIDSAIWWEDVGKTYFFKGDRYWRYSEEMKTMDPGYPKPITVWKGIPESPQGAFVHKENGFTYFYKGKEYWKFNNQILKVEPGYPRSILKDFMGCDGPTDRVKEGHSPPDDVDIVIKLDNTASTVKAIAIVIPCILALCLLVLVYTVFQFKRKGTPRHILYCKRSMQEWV

Question: With COC(=O)CCNC(=O)[C@H](CC(C)C)NC(=O)[C@@H](NC(=O)CNC(=O)[C@H](CC(C)C)NC(=O)[C@@H]1CCCN1C(C)=O)Nc1ccc([N+](=O)[O-])cc1 [Example 1.1, Methyl 1-acetyl-L-prolyl-L-leucylglycyl-α-R-(4-nitrophenylamino)-glycyl-L-leucyl-β-alaninate] as the compound, how does the Activity (MMP1; 30 μM substrate, MMP Conc. 9.3 nM, Calbiochem #444208) read?
Answer: 0.16 units/s

Question: What about the “Activity of selected substrates with MMPs” value (MMP1; Table 1b, MMP1) of the same compound?
Answer: 26.1 units/s (molRXH/molEnz * s)

Question: And the Activity (MMP3; 30 μM substrate, MMP Conc. 19 nM, AZL0095)?
Answer: 0.048 units/s

Question: What about the “Activity of selected substrates with MMPs” value (MMP3; Table 1b, MMP3) of the same compound?
Answer: 3.8 units/s (molRXH/molEnz * s)

Question: And the Activity (MMP8; 30 μM substrate, MMP Conc. 2.7 nM, Calbiochem #444229)?
Answer: 1.1 units/s

Question: What about the “Activity of selected substrates with MMPs” value (MMP8; Table 1b, MMP8) of the same compound?
Answer: 120.4 units/s (molRXH/molEnz * s)

Question: And the Activity (MMP9; 30 μM substrate, MMP Conc. 0.27 nM, AZL0064)?
Answer: 7.4 units/s

Question: And the “Activity of selected substrates with MMPs” value (MMP9; Table 1b, MMP9)?
Answer: 62.9 units/s (molRXH/molEnz * s)

Question: What about the Activity (MMP13) of the same compound?
Answer: 1.9 units/s

Question: And the Activity (MMP16)?
Answer: 1.4 units/s

Question: And the Activity (MMP2)?
Answer: 2.3 units/s

Question: What about the Activity (MMP19) of the same compound?
Answer: 0.13 units/s

Question: And the “Cleavage by MMPs to liberate the reporter” value (MMPs)?
Answer: rapidly cleaved by MMPs
